Source: the Kinase Knowledgebase extract (Sharma et al. 2016)

Key:
PIK3CB (Human) = PIK3CB (Human) (UniProt P42338); assay: Assessment of PIK3CB Kinase Binding Activity
PIK3CG (human) = PIK3CG (human) (UniProt P48736); assay: Assessment of PIK3CG Kinase Binding Activity
PIK3CD (Human) = PIK3CD (Human) (UniProt O00329); assay: Assessment of PIK3CD Kinase Binding Activity
PIK3CA (human) [1] = target: PIK3CA (human) (UniProt P42336); assay: Assessment of PIK3CA Kinase Binding Activity
PIK3CA (human) [2] = target: PIK3CA (human) (UniProt P42336); assay: Inhibition of PIK3CA Kinase Activity
PIK3CA (human) [3] = target: PIK3CA (human) (UniProt P42336); assay: Inhibition of A2780 Cell Proliferation

Sequence of PIK3CB (Human) (P42338 whole entry, looked up): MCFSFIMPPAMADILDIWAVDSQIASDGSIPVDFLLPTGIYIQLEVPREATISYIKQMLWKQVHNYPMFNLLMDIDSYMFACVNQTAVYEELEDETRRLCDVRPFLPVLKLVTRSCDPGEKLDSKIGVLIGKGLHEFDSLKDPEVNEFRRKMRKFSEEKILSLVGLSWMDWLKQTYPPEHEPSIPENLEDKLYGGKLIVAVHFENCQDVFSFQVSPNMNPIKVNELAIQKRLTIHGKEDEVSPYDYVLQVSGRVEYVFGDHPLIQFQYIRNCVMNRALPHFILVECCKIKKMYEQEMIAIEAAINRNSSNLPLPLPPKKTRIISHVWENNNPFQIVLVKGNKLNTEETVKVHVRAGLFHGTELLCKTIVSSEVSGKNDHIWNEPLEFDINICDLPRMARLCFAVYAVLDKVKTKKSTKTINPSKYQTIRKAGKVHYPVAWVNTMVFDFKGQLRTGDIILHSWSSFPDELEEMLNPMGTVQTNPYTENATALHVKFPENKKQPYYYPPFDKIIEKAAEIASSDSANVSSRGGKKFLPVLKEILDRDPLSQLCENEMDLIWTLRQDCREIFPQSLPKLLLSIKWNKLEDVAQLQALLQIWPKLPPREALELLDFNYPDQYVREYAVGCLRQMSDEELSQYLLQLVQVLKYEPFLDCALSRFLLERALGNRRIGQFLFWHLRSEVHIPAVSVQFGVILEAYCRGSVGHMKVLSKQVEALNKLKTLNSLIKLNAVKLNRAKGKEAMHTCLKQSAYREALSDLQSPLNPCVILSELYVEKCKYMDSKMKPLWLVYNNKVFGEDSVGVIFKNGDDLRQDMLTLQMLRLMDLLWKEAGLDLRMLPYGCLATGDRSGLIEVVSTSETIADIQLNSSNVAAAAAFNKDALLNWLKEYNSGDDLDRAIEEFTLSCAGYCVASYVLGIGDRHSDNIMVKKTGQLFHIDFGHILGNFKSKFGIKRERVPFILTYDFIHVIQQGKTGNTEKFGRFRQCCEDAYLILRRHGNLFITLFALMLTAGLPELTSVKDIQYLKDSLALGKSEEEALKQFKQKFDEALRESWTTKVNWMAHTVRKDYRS
Sequence of PIK3CD (Human) (O00329 whole entry, looked up): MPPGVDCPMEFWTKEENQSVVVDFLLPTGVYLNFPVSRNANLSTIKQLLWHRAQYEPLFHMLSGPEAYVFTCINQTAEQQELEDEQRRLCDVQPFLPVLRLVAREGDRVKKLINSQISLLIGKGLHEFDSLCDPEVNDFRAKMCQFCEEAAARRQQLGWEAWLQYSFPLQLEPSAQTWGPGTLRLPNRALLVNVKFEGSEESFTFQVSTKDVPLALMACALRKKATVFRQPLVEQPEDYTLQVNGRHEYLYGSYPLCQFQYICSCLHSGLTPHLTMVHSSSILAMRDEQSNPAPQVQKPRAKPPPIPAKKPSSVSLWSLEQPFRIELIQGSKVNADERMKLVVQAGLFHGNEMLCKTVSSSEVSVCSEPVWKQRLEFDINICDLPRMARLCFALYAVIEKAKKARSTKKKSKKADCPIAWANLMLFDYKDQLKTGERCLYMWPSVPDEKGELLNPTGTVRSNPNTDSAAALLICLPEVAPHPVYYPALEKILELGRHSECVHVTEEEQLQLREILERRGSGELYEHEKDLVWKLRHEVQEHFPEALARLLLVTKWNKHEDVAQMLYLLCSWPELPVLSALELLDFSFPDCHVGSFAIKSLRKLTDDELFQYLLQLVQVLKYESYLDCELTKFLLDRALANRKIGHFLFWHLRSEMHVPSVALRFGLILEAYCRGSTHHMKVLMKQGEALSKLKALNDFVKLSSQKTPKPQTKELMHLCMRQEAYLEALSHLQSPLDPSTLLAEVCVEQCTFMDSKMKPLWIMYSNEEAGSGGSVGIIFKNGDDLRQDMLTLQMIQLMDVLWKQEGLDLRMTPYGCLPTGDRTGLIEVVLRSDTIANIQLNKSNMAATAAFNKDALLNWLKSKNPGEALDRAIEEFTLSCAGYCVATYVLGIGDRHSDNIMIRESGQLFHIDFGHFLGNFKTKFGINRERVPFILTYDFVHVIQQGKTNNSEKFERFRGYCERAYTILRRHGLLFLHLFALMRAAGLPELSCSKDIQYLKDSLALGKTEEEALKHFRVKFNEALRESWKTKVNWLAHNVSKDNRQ
Sequence of PIK3CA (human) (P42336 whole entry, looked up): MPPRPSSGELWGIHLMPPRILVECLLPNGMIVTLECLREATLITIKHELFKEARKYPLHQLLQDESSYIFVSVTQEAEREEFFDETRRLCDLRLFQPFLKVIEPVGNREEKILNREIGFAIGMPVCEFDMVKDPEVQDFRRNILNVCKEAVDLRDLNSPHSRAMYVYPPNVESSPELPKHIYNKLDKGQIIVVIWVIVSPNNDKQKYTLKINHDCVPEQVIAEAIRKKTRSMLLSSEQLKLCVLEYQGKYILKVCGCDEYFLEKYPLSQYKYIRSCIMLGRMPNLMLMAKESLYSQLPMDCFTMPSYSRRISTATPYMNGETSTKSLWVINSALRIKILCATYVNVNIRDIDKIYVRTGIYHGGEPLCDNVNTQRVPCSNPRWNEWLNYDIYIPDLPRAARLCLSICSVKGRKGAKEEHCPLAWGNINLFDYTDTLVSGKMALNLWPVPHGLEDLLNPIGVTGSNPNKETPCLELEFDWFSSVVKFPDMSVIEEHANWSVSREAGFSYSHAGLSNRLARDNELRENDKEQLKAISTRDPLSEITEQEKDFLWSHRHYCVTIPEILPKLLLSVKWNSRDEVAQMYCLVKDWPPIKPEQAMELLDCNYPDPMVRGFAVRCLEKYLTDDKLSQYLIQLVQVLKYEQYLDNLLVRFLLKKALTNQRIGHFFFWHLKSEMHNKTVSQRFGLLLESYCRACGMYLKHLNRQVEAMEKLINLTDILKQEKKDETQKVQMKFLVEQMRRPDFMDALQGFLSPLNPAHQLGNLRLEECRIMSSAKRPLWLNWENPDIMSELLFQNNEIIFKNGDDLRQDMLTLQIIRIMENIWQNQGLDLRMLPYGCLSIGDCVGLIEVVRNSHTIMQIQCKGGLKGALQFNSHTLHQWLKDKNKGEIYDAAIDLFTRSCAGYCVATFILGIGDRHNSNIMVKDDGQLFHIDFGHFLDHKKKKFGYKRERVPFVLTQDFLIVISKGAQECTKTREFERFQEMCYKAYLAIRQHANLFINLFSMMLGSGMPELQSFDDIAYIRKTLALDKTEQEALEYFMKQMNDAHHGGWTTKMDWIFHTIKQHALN
Sequence of PIK3CG (human) (P48736 whole entry, looked up): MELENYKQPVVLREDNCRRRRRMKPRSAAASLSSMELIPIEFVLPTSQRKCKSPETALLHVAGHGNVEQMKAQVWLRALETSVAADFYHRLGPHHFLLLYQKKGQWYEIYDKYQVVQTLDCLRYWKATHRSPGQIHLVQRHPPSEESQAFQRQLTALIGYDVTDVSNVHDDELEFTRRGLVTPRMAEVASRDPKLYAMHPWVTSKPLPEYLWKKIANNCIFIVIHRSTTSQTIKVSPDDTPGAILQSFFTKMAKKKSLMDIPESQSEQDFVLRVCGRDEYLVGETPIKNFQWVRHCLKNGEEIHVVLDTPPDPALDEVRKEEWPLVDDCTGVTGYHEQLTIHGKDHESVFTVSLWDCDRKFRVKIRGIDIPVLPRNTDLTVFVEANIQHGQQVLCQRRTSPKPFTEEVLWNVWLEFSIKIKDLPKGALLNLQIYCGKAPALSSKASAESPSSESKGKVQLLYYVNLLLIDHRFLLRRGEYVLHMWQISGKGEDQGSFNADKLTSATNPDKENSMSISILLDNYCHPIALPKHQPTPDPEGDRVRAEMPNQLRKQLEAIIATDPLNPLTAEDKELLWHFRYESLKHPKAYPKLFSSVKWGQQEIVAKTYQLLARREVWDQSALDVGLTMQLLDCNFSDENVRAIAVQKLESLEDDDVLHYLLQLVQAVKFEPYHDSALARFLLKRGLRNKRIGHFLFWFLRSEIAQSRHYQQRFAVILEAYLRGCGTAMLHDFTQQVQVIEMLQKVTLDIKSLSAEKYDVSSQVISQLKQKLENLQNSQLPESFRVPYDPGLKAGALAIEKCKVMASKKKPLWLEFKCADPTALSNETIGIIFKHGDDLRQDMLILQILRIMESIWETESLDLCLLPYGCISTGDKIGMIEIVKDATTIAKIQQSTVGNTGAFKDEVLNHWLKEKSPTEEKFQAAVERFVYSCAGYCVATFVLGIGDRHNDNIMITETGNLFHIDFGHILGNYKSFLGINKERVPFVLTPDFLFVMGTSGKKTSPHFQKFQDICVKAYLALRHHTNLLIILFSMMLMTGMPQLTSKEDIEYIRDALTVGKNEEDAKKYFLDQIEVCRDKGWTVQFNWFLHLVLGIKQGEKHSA

Ki (PIK3CB (Human)) | Ki (PIK3CG (human)) | Ki (PIK3CD (Human)) | Ki (PIK3CA (human) [1]) | IC50 (PIK3CA (human) [2]) | EC50 (PIK3CA (human) [3]) | SMILES
< 1000 nM | < 1000 nM | < 1000 nM | < 1000 nM | – | – | Nc1ncc(-c2ccc3nc(NC(=O)NCCn4nnc(C5CC5)n4)cn3c2)cc1C(F)(F)F
< 1000 nM | < 1000 nM | < 1000 nM | < 10000 nM | – | – | CC(C)n1nnc(CCNC(=O)Nc2cn3cc(-c4ccc(N)nc4)ccc3n2)n1
< 1000 nM | < 1000 nM | < 1000 nM | < 1000 nM | – | – | CCc1nnn(CCNC(=O)Nc2cn3cc(-c4cnc(N)c(C(F)(F)F)c4)ccc3n2)n1
< 1000 nM | < 1000 nM | < 1000 nM | < 1000 nM | – | – | CCn1nnc(CCNC(=O)Nc2cn3cc(-c4cnc(N)c(C(F)(F)F)c4)ccc3n2)n1
< 1000 nM | < 1000 nM | < 1000 nM | < 1000 nM | – | – | CCc1cnc(CCNC(=O)Nc2cn3cc(-c4cnc(N)c(C(F)(F)F)c4)ccc3n2)o1
– | – | – | – | < 1000 nM | < 10000 nM | CC(=O)Nc1nc2ccc(-c3cnc(N)c(C(F)(F)F)c3)cn2c1C#Cc1ccccn1
– | – | – | – | < 1000 nM | < 25000 nM | CC(=O)Nc1nc2ccc(-c3cnc(N)c(C(F)(F)F)c3)cn2c1Br
– | – | – | – | < 1000 nM | < 25000 nM | COc1nc(-c2cc(F)c3nc(NC(C)=O)cn3c2)cnc1N
– | – | – | – | < 1000 nM | < 25000 nM | Nc1ncc(-c2ccc3nc(NC(=O)N4CCC(C(=O)O)C4)cn3c2)cc1C(F)(F)F (stereo not given)
– | – | – | – | < 1000 nM | < 1000 nM | Nc1ncc(-c2ccc3nc(NC(=O)CCCN4CCOCC4)cn3n2)cc1C(F)(F)F
– | – | – | – | < 10000 nM | < 10000 nM | NC(=O)N1CCC[C@H]1C(=O)Nc1cn2cc(-c3cnc(N)c(C(F)(F)F)c3)ccc2n1
– | – | – | – | < 1000 nM | < 10000 nM | CC(=O)Nc1cn2cc(-c3cnc(N)c(N4CCN(C)CC4)n3)ccc2n1
– | – | – | – | < 25000 nM | < 25000 nM | CNC(=O)[C@@H]1CCN1C(=O)Nc1cn2cc(-c3cnc(N)c(C(F)(F)F)c3)ccc2n1
– | – | – | – | < 1000 nM | < 25000 nM | Nc1ncc(-c2ccc3nc(NC(=O)[C@H]4CCCN4)cn3n2)cc1C(F)(F)F
– | – | – | – | < 1000 nM | < 10000 nM | CCOc1nc(-c2ccc3nc(NC(C)=O)cn3n2)cnc1N
– | – | – | – | < 1000 nM | < 25000 nM | C=Cc1c(NC(C)=O)nc2ccc(-c3cnc(N)c(C(F)(F)F)c3)cn12
– | – | – | – | < 1000 nM | < 10000 nM | CC(=O)Nc1cn2cc(-c3cnc(N)c(Oc4ccc(N5CCN(C(C)=O)CC5)cc4)n3)ccc2n1
– | – | – | – | < 1000 nM | < 10000 nM | CCN(CC)Cc1cc(-c2ccc3nc(NC(C)=O)cn3n2)cnc1N
– | – | – | – | < 1000 nM | < 10000 nM | N#Cc1cccc(C(=O)Nc2cn3cc(-c4cnc(N)c(C(F)(F)F)c4)ccc3n2)c1
– | – | – | – | < 1000 nM | < 10000 nM | CC(C)(C)OC(=O)N1CC(C(=O)Nc2cn3nc(-c4cnc(N)c(C(F)(F)F)c4)ccc3n2)C1
– | – | – | – | < 1000 nM | < 25000 nM | CC(=O)Nc1cn2cc(-c3cnc(N)c(C(F)(F)F)c3)c(F)cc2n1
– | – | – | – | < 1000 nM | < 10000 nM | Nc1ncc(-c2ccc3nc(NC(=O)N4CCCC4C(F)(F)F)cn3c2)cc1C(F)(F)F (stereo not given)
< 1000 nM | < 1000 nM | < 1000 nM | < 1000 nM | – | – | CC(C)n1nnc(CCNC(=O)Nc2cn3cc(-c4cnc(N)c(C(F)(F)F)c4)ccc3n2)n1
– | – | – | – | ≥ 25000 nM | < 10000 nM | COc1cc(-c2ccc3nc(NC(C)=O)cn3c2)c(C)nc1N
– | – | – | – | < 1000 nM | < 10000 nM | Nc1ncc(-c2ccc3nc(NC(=O)[C@@H]4CCN4)cn3c2)cc1C(F)(F)F

Ki (PIK3CB (Human)) | Ki (PIK3CG (human)) | Ki (PIK3CD (Human)) | Ki (PIK3CA (human) [1]) | IC50 (PIK3CA (human) [2]) | EC50 (PIK3CA (human) [3]) | SMILES
– | – | – | – | < 1000 nM | < 10000 nM | CC(=O)Nc1cn2nc(-c3cnc(N)c(C(=O)NCCN4CCCC4)c3)ccc2n1
– | – | – | – | < 1000 nM | < 25000 nM | CC(=O)Nc1nc2cc(C)c(-c3cnc(N)c(C(F)(F)F)c3)cc2s1
– | – | – | – | < 1000 nM | < 25000 nM | Cc1ccc(C2CCCN2C(=O)Nc2cn3cc(-c4cnc(N)c(C(F)(F)F)c4)ccc3n2)s1 (stereo not given)
– | – | – | – | < 1000 nM | < 1000 nM | Nc1ncc(-c2ccc3nc(NC(=O)CO[C@@H]4CCNC4)cn3n2)cc1C(F)(F)F
– | – | – | – | < 1000 nM | < 25000 nM | CC(=O)Nc1nc2ccc(-c3cnc(N)c(C(F)(F)F)c3)cn2c1-c1ccc(C(N)=O)cc1
– | – | – | – | < 1000 nM | < 10000 nM | CC(C)(C)OC(=O)NCCC(=O)Nc1cn2nc(-c3cnc(N)c(C(F)(F)F)c3)ccc2n1
– | – | – | – | < 1000 nM | < 25000 nM | CC(=O)Nc1cn2cc(-c3cnc(N)c(C(=O)NCCNS(C)(=O)=O)n3)ccc2n1
– | – | – | – | < 1000 nM | < 25000 nM | CC(=O)Nc1cn2nc(-c3cnc(N)c(C(=O)NCCN)c3)ccc2n1
– | – | – | – | < 1000 nM | < 25000 nM | CC(=O)Nc1cn2cc(-c3cnc(N)c(C(=O)N4CCCC4)c3)ccc2n1
– | – | – | – | < 10000 nM | < 25000 nM | Nc1ncc(-c2ccc3nc(NC(=O)N4CC[C@H]4C(=O)O)cn3c2)cc1C(F)(F)F
– | – | – | – | < 1000 nM | < 25000 nM | CC(C)(C)OC(=O)N1CCC[C@H]1C(=O)Nc1cn2nc(-c3cnc(N)c(C(F)(F)F)c3)ccc2n1
– | – | – | – | < 1000 nM | < 1000 nM | CC(=O)Nc1cn2nc(-c3cnc(N)c(-c4ccn(C)n4)c3)ccc2n1
– | – | – | – | < 1000 nM | < 1000 nM | CC(C)(C)OC(=O)N1CC[C@H](OCC(=O)Nc2cn3nc(-c4cnc(N)c(C(F)(F)F)c4)ccc3n2)C1
– | – | – | – | < 1000 nM | < 25000 nM | CC(=O)NC1CCN(C(=O)Nc2cn3cc(-c4cnc(N)c(C(F)(F)F)c4)ccc3n2)C1 (stereo not given)
– | – | – | – | < 1000 nM | < 25000 nM | CC(=O)Nc1cn2cc(-c3cnc(N)c(C=NOC(C)(C)C)c3)ccc2n1
– | – | – | – | < 10000 nM | < 25000 nM | Nc1ncc(-c2ccc3nc(NC(=O)C(F)(F)F)cn3c2O)cc1C(F)(F)F
– | – | – | – | < 1000 nM | < 10000 nM | COc1ccccc1-c1cc(-c2ccc3nc(NC(C)=O)cn3n2)cnc1N
– | – | – | – | < 1000 nM | < 10000 nM | Nc1ncc(-c2ccc3nc(NC(=O)c4ccc(N5CCNCC5)nc4)cn3c2)cc1C(F)(F)F
– | – | – | – | < 1000 nM | < 10000 nM | Nc1ncc(-c2ccc3nc(NC(=O)c4ccc(-n5ccnc5)cc4)cn3c2)cc1C(F)(F)F
– | – | – | – | < 1000 nM | < 1000 nM | CC(C)(C)OC(=O)NCCCC(=O)Nc1cn2nc(-c3cnc(N)c(C(F)(F)F)c3)ccc2n1
– | – | – | – | < 1000 nM | < 25000 nM | Nc1ncc(-c2ccc3nc(NC(=O)c4ccc(F)nc4)cn3c2)cc1C(F)(F)F
– | – | – | – | < 1000 nM | < 25000 nM | CC(=O)Nc1cn2cc(-c3cnc(N)c(F)c3)ccc2n1
– | – | – | – | < 1000 nM | < 10000 nM | COC(=O)Nc1nc2ccc(-c3ccc(N)nc3)cc2s1
– | – | – | – | < 1000 nM | < 10000 nM | CCN1CC[C@@H](OCC(=O)Nc2cn3cc(-c4cnc(N)c(C(F)(F)F)c4)ccc3n2)C1
